# Measurements: patent publication US20260001876A1, “Compounds and Their Use as PDE4 Activators” (Mironid Limited, priority 2022, published 2026)
# System: m-IMCD3 cells
# Assay: Inhibition of PGE2-stimulated in vitro cyst formation in m-IMCD3 cells (3D culture)
# Format: cell-based
# Settings: Mus musculus, mIMCD3, 144 h; 3 μM; mean cyst area; 100% for (DMSO + PGE2) and 0% for DMSO control; 6 days of culture; read-out: % Cyst area* after incubation with 3 μM test compound
# Experimental: HEK 293 and MDCK cells (Public Health England, Cell Culture Collections) were maintained in Dulbecco's Modified Eagle's Medium (DMEM) supplemented with 10% (v/v) fetal bovine serum (FBS) (Seralab), 2 mM L-glutamine and 100 U/mL penicillin streptomycin cocktail (ThermoFisher); termed complete media. Clonal HEK 293 cell lines were maintained in complete media supplemented with 0.6 mg/ml G418 (Enzo Life Sciences). Mouse inner medullary collecting duct (m-IMCD3) cells [American Type Culture Collection (ATCC)] were maintained in media consisting of DMEM/Hams F-12 50/50 Mix (DMEM F12; Corning) supplemented with penicillin streptomycin cocktail (100 U/mL) and FBS (10% v/v) (DMEM F12-10% FBS).
# Experiment 3: Inhibition of In Vitro Cyst Formation in m-IMCD3 Cells Treated with PDE4 Long Form Activators
# The mouse Inner Medullary Collecting Duct cell line (m-IMCD3) spontaneously forms cystic spheroids in 3D culture with a Type 1 collagen/Matrigel extracellular matrix. This process can be stimulated with agents which raise intracellular cAMP and is used as an in vitro model for the formation of cystic structures in the kidneys of patients with ADPKD.
# Rat Collagen I (Fisher Scientific) is prepared on ice by neutralising with 1M NaOH and diluting with a 2× volume of DMEM/F12+10% FBS. This is mixed 1:1.1 with ice cold Matrigel (Corning) for coating plates (coating mix), and 1:0.93 with Matrigel for cell plating (plating mix).
# The assay is conducted in the wells of a 96-well plate culture dish using a total volume of 130 μL of collagen/Matrigel/DMEM F12-10% FBS suspension in growth media for each matrix plug per individual well. Initially, 30 μL of collagen/Matrigel/DMEM F12-10% FBS (coating mix) is added into the well of a 96 well plate and the collagen is set to a gel by incubating at 37° C. for at least 15 minutes. A second layer of 100 μL collagen/Matrigel suspension (plating mix) containing m-IMCD3 cells (2.75×10^6 m-IMCD3 cells per 96-well plate) is layered over the coating mix and the collagen/Matrigel/cell mix again set to a gel by incubating at 37° C. Cell cultures are maintained at 37° C. in an atmosphere of 5% CO2, 95% air.
# Between 18 and 24 h after plating, test compound(s) as DMSO stock solutions [0.1% (v/v) final DMSO concentration] and PGE2 (100 nM final concentration) in DMEM F12-10% FBS are added in quadruplicate wells per condition. Media, together with the test compound and PGE2 are replenished after 2 or 3 days. After 6 days of culture z stack images of the wells are captured using the Nikon Eclipse Ti2-E microscope. Nikon General Analysis software is used to measure the following parameters in each well: the mean cyst area, the number of cysts, and the total cyst area.
# PDE4 long form activators inhibited in vitro cyst formation in m-IMCD3 cells. Data are shown in Table 4 as mean cyst area (%), compared to 100% for (DMSO+PGE2) and 0% for DMSO control.
row,Compound,activity at 3 µM [%]
1,"N#Cc1ccc(CC(=O)N2CCc3nc(N4CC5CCC(C4)N5)ncc3C2)cc1 [Example 138, 4-(2-(2-(3,8-diazabicyclo[3.2.1]octan-3-yl)-7,8-dihydropyrido[4,3-d]pyrimidin-6(5H)-yl)-2-oxoethyl)benzonitrile]",0
2,"O=C(Cc1ccc(F)cc1)N1CCc2nc(N3CCNCC3)ncc2C1 [Example 140, 2-(4-fluorophenyl)-1-(2-(piperazin-1-yl)-7,8-dihydropyrido[4,3-d]pyrimidin-6(5H)-yl)ethan-1-one]",6
3,"O=C(Cc1ccc(F)cc1)N1CCc2nc(N3CC4CCC(C3)N4)ncc2C1 [Example 141, 1-(2-(3,8-diazabicyclo[3.2.1]octan-3-yl)-7,8-dihydropyrido[4,3-d]pyrimidin-6(5H)-yl)-2-(4-fluorophenyl)ethan-1-one]",-2
4,"O=C(CC1CCCC1)N1CCc2nc(N3C4CCC3CNC4)ncc2C1 [Example 142, 1-(2-(3,8-diazabicyclo[3.2.1]octan-8-yl)-7,8-dihydropyrido[4,3-d]pyrimidin-6(5H)-yl)-2-cyclopentylethan-1-one]",26
5,"O=C(CC1CCCC1)N1CCc2nc(N3CCNCC3)ncc2C1 [Example 143, 2-cyclopentyl-1-(2-(piperazin-1-yl)-7,8-dihydropyrido[4,3-d]pyrimidin-6(5H)-yl)ethan-1-one]",22
6,"O=C(CC1CCCCC1)N1CCc2nc(N3CCNCC3)ncc2C1 [Example 145, 2-cyclohexyl-1-(2-(piperazin-1-yl)-7,8-dihydropyrido[4,3-d]pyrimidin-6(5H)-yl)ethan-1-one]",15
7,"CC(C)(C)CC(=O)N1CCc2nc(N3C4CCC3CNC4)ncc2C1 [Example 146, 1-(2-(3,8-diazabicyclo[3.2.1]octan-8-yl)-7,8-dihydropyrido[4,3-d]pyrimidin-6(5H)-yl)-3,3-dimethylbutan-1-one]",22
8,"O=C(CC1CCCC1)N1CCc2cnc(N3C4CCC3CNC4)nc2C1 [Example 148, 1-(2-(3,8-diazabicyclo[3.2.1]octan-8-yl)-5,8-dihydropyrido[3,4-d]pyrimidin-7 (6H)-yl)-2-cyclopentylethan-1-one]",7
9,"CC(C)(C)CC(=O)N1CCc2nc(N3CCNCC3)ccc2C1 [Example 149, 3,3-dimethyl-1-(2-(piperazin-1-yl)-7,8-dihydro-1,6-naphthyridin-6(5H)-yl) butan-1-one]",11
10,"O=C(CC1CCCC1)N1CCc2nc(N3CC4CCC3CN4)ccc2C1 (centres unmarked) [Example 153, 1-(2-(2,5-diazabicyclo[2.2.2]octan-2-yl)-7,8-dihydro-1,6-naphthyridin-6(5H)-yl)-2-cyclopentylethan-1-one]",2
11,"O=C(CC1CCCC1)N1CCc2nc(N3CC4CCC(C3)N4)ccc2C1 [Example 154, 1-(2-(3,8-diazabicyclo[3.2.1]octan-3-yl)-7,8-dihydro-1,6-naphthyridin-6(5H)-yl)-2-cyclopentylethan-1-one]",-6
12,"O=C(CC1CCCC1)N1CCc2nc(N3C4CNCC3CC(O)C4)ccc2C1 (centres unmarked) [Example 157, 2-cyclopentyl-1-(2-(7-hydroxy-3,9-diazabicyclo[3.3.1]nonan-9-yl)-7,8-dihydro-1,6-naphthyridin-6(5H)-yl)ethan-1-one]",10
13,"CCN1CCN(c2ccc3c(n2)CCN(S(=O)(=O)Cc2ccc(F)cc2)C3)CC1 [Example 161, 2-(4-ethylpiperazin-1-yl)-6-((4-fluorobenzyl)sulfonyl)-5,6,7,8-tetrahydro-1,6-naphthyridine]",0
14,"O=S(=O)(Cc1ccccc1)N1CCc2nc(N3CCNCC3)ccc2C1 [Example 164, 6-(benzylsulfonyl)-2-(piperazin-1-yl)-5,6,7,8-tetrahydro-1,6-naphthyridine]",0
15,"CCN1CCN(c2ccc3c(n2)CCN(S(=O)(=O)Cc2ccccc2)C3)CC1 [Example 165, 6-(benzylsulfonyl)-2-(4-ethylpiperazin-1-yl)-5,6,7,8-tetrahydro-1,6-naphthyridine]",-1
16,"CCN1CC2CCC(C1)N2c1ccc2c(n1)CCN(C(=O)N[C@H]1CCOc3ccccc31)C2 [Example 167, N—((S)-chroman-4-yl)-2-(3-ethyl-3,8-diazabicyclo[3.2.1]octan-8-yl)-7,8-dihydro-1,6-naphthyridine-6(5H)-carboxamide]",-8
17,"O=C(N[C@H]1CCOc2ccccc21)N1CCc2nc(N3CCNCC3)ccc2C1 [Example 168, (S)—N-(chroman-4-yl)-2-(piperazin-1-yl)-7,8-dihydro-1,6-naphthyridine-6(5H)-carboxamide]",4
18,"CCN1CCN(c2ccc3c(n2)CCN(C(=O)N[C@H]2CCOc4ccccc42)C3)CC1 [Example 169, (S)—N-(chroman-4-yl)-2-(4-ethylpiperazin-1-yl)-7,8-dihydro-1,6-naphthyridine-6(5H)-carboxamide]",-4
19,"CCN1CC2CCC(C1)N2c1ccc2c(n1)CCN(C(=O)N[C@@H]1CCOc3ccccc31)C2 [Example 170, N—((R)-chroman-4-yl)-2-(3-ethyl-3,8-diazabicyclo[3.2.1]octan-8-yl)-7,8-dihydro-1,6-naphthyridine-6(5H)-carboxamide]",23
20,"CCN1CC2CCC(C1)N2c1ccc2c(n1)CCN(C(=O)COc1ccc(F)cc1)C2 [Example 171, 1-(2-(3-ethyl-3,8-diazabicyclo[3.2.1]octan-8-yl)-7,8-dihydro-1,6-naphthyridin-6(5H)-yl)-2-(4-fluorophenoxy)ethan-1-one]",4
21,"CCCN1CC2CCC(C1)N2c1ccc2c(n1)CCN(C(=O)COc1ccc(F)cc1)C2 [Example 172, 2-(4-fluorophenoxy)-1-(2-(3-propyl-3,8-diazabicyclo[3.2.1]octan-8-yl)-7,8-dihydro-1,6-naphthyridin-6(5H)-yl)ethan-1-one]",6
22,"COCCN1CC2CCC(C1)N2c1ccc2c(n1)CCN(C(=O)COc1ccc(F)cc1)C2 [Example 173, 2-(4-fluorophenoxy)-1-(2-(3-(2-methoxyethyl)-3,8-diazabicyclo[3.2.1]octan-8-yl)-7,8-dihydro-1,6-naphthyridin-6(5H)-yl)ethan-1-one]",3
23,"COCCCN1CC2CCC(C1)N2c1ccc2c(n1)CCN(C(=O)COc1ccc(F)cc1)C2 [Example 174, 2-(4-fluorophenoxy)-1-(2-(3-(3-methoxypropyl)-3,8-diazabicyclo[3.2.1]octan-8-yl)-7,8-dihydro-1,6-naphthyridin-6(5H)-yl)ethan-1-one]",1
24,"O=C(Cc1ccccc1)N1CCc2nc(N3CCNCC3)ccc2C1 [Example 175, 2-phenyl-1-(2-(piperazin-1-yl)-7,8-dihydro-1,6-naphthyridin-6(5H)-yl)ethan-1-one]",2
25,"O=C(Cc1ccc(F)cc1)N1CCc2nc(N3CCNCC3)ccc2C1 [Example 176, 2-(4-fluorophenyl)-1-(2-(piperazin-1-yl)-7,8-dihydro-1,6-naphthyridin-6(5H)-yl)ethan-1-one]",-2
26,"O=C(CC1CCCC1)N1CCc2cc(N3C4CCC3CNC4)cnc2C1 [Example 177, 1-(3-(3,8-diazabicyclo[3.2.1]octan-8-yl)-5,8-dihydro-1,7-naphthyridin-7 (6H)-yl)-2-cyclopentylethan-1-one]",10
27,"O=C(CC1CCCC1)N1CCc2cc(N3C4CCC3CNC4)ncc2C1 [Example 178, 1-(6-(3,8-diazabicyclo[3.2.1]octan-8-yl)-3,4-dihydro-2,7-naphthyridin-2 (1H)-yl)-2-cyclopentylethan-1-one]",1
28,"O=C(CC1CCCC1)N1CCc2cnc(N3C4CCC3CNC4)cc2C1 [Example 179, 1-(7-(3,8-diazabicyclo[3.2.1]octan-8-yl)-3,4-dihydro-2,6-naphthyridin-2 (1H)-yl)-2-cyclopentylethan-1-one]",1
29,"O=C(COc1ccc(F)cc1)N1CCc2nc(N3CCNCC3)ccc2C1 [Example 180, 2-(4-fluorophenoxy)-1-(2-(piperazin-1-yl)-7,8-dihydro-1,6-naphthyridin-6(5H)-yl)ethan-1-one]",11
